According to patent publication US12581252B2, “Substituted pyrrolo[3,4-b]pyridines as PI3K-α inhibitors” (Relay Therapeutics, Inc., priority 2020, dated 2026):

What follows are compounds tested against H1047R PIK3CA enzyme (Homo sapiens, UniProt P42336, H1047R) (assay: ADP-Glo Biochemical PIK3CA Kinase Assay).
H1047R PIK3CA enzyme, sequence (P42336 whole entry H1047R): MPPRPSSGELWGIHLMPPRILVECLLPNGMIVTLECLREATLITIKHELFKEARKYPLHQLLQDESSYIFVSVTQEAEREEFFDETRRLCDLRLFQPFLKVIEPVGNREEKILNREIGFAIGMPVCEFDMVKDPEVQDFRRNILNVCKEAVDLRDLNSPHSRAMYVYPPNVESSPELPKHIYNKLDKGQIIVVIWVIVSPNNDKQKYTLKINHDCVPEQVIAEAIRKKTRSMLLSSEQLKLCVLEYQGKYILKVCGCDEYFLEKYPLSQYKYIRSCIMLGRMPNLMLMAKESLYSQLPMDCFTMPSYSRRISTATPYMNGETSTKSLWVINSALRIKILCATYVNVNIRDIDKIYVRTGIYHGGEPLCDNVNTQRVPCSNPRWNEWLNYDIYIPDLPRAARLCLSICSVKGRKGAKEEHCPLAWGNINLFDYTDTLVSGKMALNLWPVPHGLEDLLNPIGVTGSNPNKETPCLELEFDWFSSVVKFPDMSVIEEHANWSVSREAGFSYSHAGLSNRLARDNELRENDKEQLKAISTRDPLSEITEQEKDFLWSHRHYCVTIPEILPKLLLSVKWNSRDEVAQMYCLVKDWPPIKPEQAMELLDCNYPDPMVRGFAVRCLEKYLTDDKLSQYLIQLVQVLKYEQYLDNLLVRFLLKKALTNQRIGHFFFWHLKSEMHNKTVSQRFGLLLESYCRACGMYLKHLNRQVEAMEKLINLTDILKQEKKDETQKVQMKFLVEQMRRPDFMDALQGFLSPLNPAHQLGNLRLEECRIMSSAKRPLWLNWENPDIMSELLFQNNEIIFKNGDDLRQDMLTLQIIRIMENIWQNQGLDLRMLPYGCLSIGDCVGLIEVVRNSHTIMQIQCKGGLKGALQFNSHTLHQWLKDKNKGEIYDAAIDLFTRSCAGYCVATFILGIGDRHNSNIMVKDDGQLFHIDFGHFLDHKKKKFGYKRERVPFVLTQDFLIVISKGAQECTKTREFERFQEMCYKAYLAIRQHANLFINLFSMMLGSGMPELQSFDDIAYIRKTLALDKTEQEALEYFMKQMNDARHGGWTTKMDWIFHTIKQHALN
H1047R PIK3CA enzyme, sequence (P27986 whole entry partner): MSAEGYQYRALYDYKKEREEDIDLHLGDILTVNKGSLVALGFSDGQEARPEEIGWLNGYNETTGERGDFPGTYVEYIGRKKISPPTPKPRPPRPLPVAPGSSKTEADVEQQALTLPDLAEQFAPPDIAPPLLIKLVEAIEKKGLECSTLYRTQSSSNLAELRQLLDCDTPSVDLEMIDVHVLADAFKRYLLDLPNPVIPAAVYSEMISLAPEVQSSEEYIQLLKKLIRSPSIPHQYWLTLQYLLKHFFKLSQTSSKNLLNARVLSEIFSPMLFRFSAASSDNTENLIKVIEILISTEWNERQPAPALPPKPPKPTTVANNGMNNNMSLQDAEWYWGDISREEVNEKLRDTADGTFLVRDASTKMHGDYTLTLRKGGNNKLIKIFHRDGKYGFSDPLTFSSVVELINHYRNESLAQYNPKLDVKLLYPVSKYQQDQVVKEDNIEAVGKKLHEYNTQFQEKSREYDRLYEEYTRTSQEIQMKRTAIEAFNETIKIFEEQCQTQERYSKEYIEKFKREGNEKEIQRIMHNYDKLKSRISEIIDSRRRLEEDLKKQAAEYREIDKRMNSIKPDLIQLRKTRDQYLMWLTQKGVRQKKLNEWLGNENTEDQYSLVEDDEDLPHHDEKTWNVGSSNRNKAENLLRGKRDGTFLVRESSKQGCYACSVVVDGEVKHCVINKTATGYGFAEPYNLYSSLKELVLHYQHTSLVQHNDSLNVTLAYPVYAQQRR
In the case of `CC(C)n1cc(-c2cc(NC(=O)c3cc(F)cc(C(F)(F)F)c3)c3c(n2)C(=O)NC3c2cc(F)ccc2Cl)ccc1=O` (centres unmarked) [Compound I-593], the IC50 is reported as no more than 0.1 µM.
For `O=C1NC(c2cc(F)ccc2Cl)c2c(NC(=O)C3(c4cc(F)ccc4F)CCCC3)cc(Br)cc21` (centres unmarked) [Compound I-1819], the IC50 was 10 to 100 µM.
`CN(C)c1cc(NC(=O)N2C[C@@](O)(C(F)(F)F)c3cc(F)ccc32)c2c(n1)C(=O)N[C@@H]2c1cc(F)ccc1Cl` (single isomer, unassigned) [Compound I-2693] was tested, and the IC50 was 10 to 100 µM.
In the case of `N#Cc1cc(NC(=O)N2C[C@](O)(C(F)(F)F)c3ccccc32)c2c(c1)C(=O)N[C@H]2c1cc(F)ccc1Cl` (single isomer, unassigned) [Compound I-2565], the IC50 is reported as 1 to 10 µM.
Work on `CNc1cc(Nc2csc3ccccc23)cc2c1C(=O)NC2c1ccccc1C` (centres unmarked) [Compound I-77] yielded an IC50 of 1 to 10 µM.
For `O=C(Nc1cccc2c1C(c1ccnc(Cl)c1)NC2=O)c1cc(F)cc(C(F)(F)F)c1` (centres unmarked) [Compound I-630], the IC50 was 10 to 100 µM.
Compound `Cc1ncc(-c2cc(NC(=O)c3cc(F)cc(Cl)c3)c3c(c2)C(=O)NC3c2cc(F)ccc2Cl)cn1` (centres unmarked) [Compound I-849] has an IC50 of no more than 0.1 µM.
`O=C1N[C@H](c2cc(F)ccc2Cl)c2c(NC(=O)N3C[C@](O)(C(F)(F)F)c4cc(F)ccc43)cc(N3CCOC3=O)cc21` (single isomer, unassigned) [Compound I-2674] was tested, and the IC50 was 1 to 10 µM.
Compound `O=C(Nc1cc(-c2ccn3nccc3n2)cc2c1C(c1cc(F)ccc1Cl)NC2=O)c1cc(F)cc(C(F)(F)F)c1` (centres unmarked) [Compound I-1763] has an IC50 of no more than 0.1 µM.
`O=C(Nc1cccc2c1C(c1cc(O)ccc1Cl)NC2=O)c1cc(O)cc(C(F)(F)F)c1` (centres unmarked) [Compound I-415] was tested, and the IC50 was 10 to 100 µM.
`O=C(Nc1cc(-c2cnn(S(=O)(=O)C(F)F)c2)cc2c1C(c1cc(F)ccc1Cl)NC2=O)c1cc(F)cc(C(F)(F)F)c1` (centres unmarked) [Compound I-2055] showed an IC50 of no more than 0.1 µM.
`CC(O)C1NC(=O)c2cccc(NC(=O)c3cc(F)cc(C(F)(F)F)c3)c21` (centres unmarked) [Compound I-1776] was tested, and the IC50 was 1 to 10 µM.
`O=C(Nc1cc(-c2ccnc(C(F)F)c2)cc2c1[C@@H](c1cc(F)ccc1Cl)NC2=O)c1cc(F)cc(C(F)(F)F)c1` [Compound I-2002] showed an IC50 of 1 to 10 µM.
Work on `O=C(CC1CCC1)Nc1cc(-c2ccc3ncnn3c2)cc2c1C(c1cc(F)ccc1Cl)NC2=O` (centres unmarked) [Compound I-1777] yielded an IC50 of 10 to 100 µM.
For `O=C1NC(c2cc(F)ccc2Cl)c2c(NC(=O)N3CCC(F)C3)cc(Br)cc21` (centres unmarked) [Compound I-542], the IC50 was 10 to 100 µM.
`CN(C)c1cc(NC(=O)N2C[C@](O)(C(F)(F)F)c3cc(F)ccc32)c2c(n1)C(=O)N[C@@H]2c1cc(F)ccc1Cl` (single isomer, unassigned) [Compound I-2692] showed an IC50 of 10 to 100 µM.
`Cn1c(=O)[nH]c2ccc(-c3cc(NC(=O)c4cc(F)cc(C(F)(F)F)c4)c4c(c3)C(=O)NC4c3cc(F)ccc3Cl)cc21` (centres unmarked) [Compound I-1044] showed an IC50 of no more than 0.1 µM.
`O=C1NC(c2ccccc2Cl)c2c(NC(=O)c3nsc4ccccc34)ccnc21` (centres unmarked) [Compound I-172] was tested, and the IC50 was 0.1 to 0.5 µM.
`O=C1NC(c2cc(F)ccc2Cl)c2c(NC(=O)N3CC[C@H](F)[C@@H](F)C3)cc(Br)cc21` (mixture of isomers) [Compound I-720] gave an IC50 of 10 to 100 µM.
`CC(C)(O)Cc1cc(NC(=O)c2cc(F)cc(Cl)c2)c2c(c1)C(=O)N[C@H]2c1cc(F)ccc1Cl` [Compound I-963] showed an IC50 of 0.5 to 1 µM.
`CC(C)(C(=O)Nc1cc(Br)cc2c1C(c1cc(F)ccc1Cl)NC2=O)C(F)(F)F` (centres unmarked) [Compound I-1620] gave an IC50 of 10 to 100 µM.
Compound `O=C1N[C@@H](c2cc(F)ccc2Cl)c2c(NC(=O)N3C[C@@](O)(C(F)(F)F)c4cc(F)ccc43)cc(C3COC3)cc21` (single isomer, unassigned) [Compound I-2656] has an IC50 of 0.5 to 1 µM.
Work on `N#CC1(n2cc(-c3cc(NC(=O)c4cc(F)cc(C(F)(F)F)c4)c4c(c3)C(=O)NC4c3cc(F)ccc3Cl)cn2)CC1` (centres unmarked) [Compound I-1800] yielded an IC50 of no more than 0.1 µM.
In the case of `O=C(Nc1cccc2c1C(C1CCNCC1)NC2=O)c1cc(F)cc(C(F)(F)F)c1` (racemic) [Compound I-1770], the IC50 is reported as 1 to 10 µM.
`Nc1nn(C(=O)Nc2cccc3c2C(c2cc(F)ccc2Cl)NC3=O)c2ccc(F)cc12` (centres unmarked) [Compound I-2431] showed an IC50 of 0.5 to 1 µM.
With `N#Cc1cnc2c(F)cc(-c3cc(NC(=O)c4cc(F)cc(C(F)(F)F)c4)c4c(c3)C(=O)N[C@H]4c3cc(F)ccc3Cl)cn12` [Compound I-1856] the IC50 was no more than 0.1 µM.
For `O=C(Nc1cc(-c2cnc(C(F)(F)F)s2)nc2c1C(c1cc(F)ccc1Cl)NC2=O)c1cc(F)cc(Cl)c1` (centres unmarked) [Compound I-496], the IC50 was no more than 0.1 µM.
`Cc1ccccc1C1NC(=O)c2nccc(NC(=O)N3CCc4ccccc43)c21` (centres unmarked) [Compound I-147, N-(7-oxo-5-(o-tolyl)-6,7-dihydro-5H-pyrrolo[3,4-b]pyridin-4-yl)indoline-1-carboxamide] gave an IC50 of 0.1 to 0.5 µM.
Compound `[2H][C@@]1(c2cc(F)ccc2Cl)NC(=O)c2cc(-c3ccc4ncnn4c3)cc(NC(=O)c3cc(F)cc(C(F)(F)F)c3)c21` (single isomer, unassigned) [Compound I-1601] has an IC50 of no more than 0.1 µM.
Work on `COc1cc(C)c(C(=O)Nc2cccc3c2C(c2ccccc2C)NC3=O)cn1` (centres unmarked) [Compound I-501] yielded an IC50 of 10 to 100 µM.
Compound `Cc1ccccc1C1NC(=O)c2cccc(-c3cc4c(F)cc(F)cc4[nH]3)c21` (centres unmarked) [Compound I-479] has an IC50 of 1 to 10 µM.
Compound `O=C1NC(c2cc(F)ccc2Cl)c2c(NC(=O)N3CCSC(C(F)(F)F)C3)cccc21` (centres unmarked) [Compound I-2340] has an IC50 of 10 to 100 µM.
`O=C(Nc1cc(N[C@H]2C[C@@H](F)C2)cc2c1C(c1cc(F)ccc1Cl)NC2=O)c1cc(F)cc(C(F)(F)F)c1` (single isomer, unassigned) [Compound I-541] gave an IC50 of no more than 0.1 µM.
Work on `O=C(Nc1cc(-c2ccc3ncnn3c2)cc2c1[C@H](c1cc(F)ccc1Cl)NC2=O)c1cc(F)cc2c1NC(=O)C2(F)F` [Compound I-1584] yielded an IC50 of 0.1 to 0.5 µM.
With `O=C1NC(c2cc(F)ccc2Cl)c2c(Nc3n[nH]c4ccccc34)cc(Br)cc21` (centres unmarked) [Compound I-1315] the IC50 was 10 to 100 µM.
`O=C1N[C@@H](c2cc(F)ccc2Cl)c2c(N[C@@H]3CCOc4ccccc43)cc(-c3cnn(C(F)F)c3)nc21` [Compound I-2081] was tested, and the IC50 was 1 to 10 µM.
`NC(=O)Cc1cc(NC(=O)c2cc(F)cc(C(F)(F)F)c2)c2c(c1)C(=O)NC2c1cc(F)ccc1Cl` (centres unmarked) [Compound I-578] was tested, and the IC50 was no more than 0.1 µM.
Work on `O=C1N[C@@H](c2cc(F)ccc2Cl)c2c(NC(=O)N3C[C@](O)(CO)c4ccccc43)cccc21` [Compound I-2166] yielded an IC50 of 1 to 10 µM.
In the case of `O=C1NC(c2cc(F)ccc2Cl)c2c(NC(=S)c3cc(F)cc(C(F)(F)F)c3)cccc21` (centres unmarked) [Compound I-753], the IC50 is reported as 0.5 to 1 µM.
Work on `O=C1NC(c2cc(F)ccc2Cl)c2c1cc(-c1ccc3ncnn3c1)cc2N1CCOCC1` (centres unmarked) [Compound I-1911] yielded an IC50 of 10 to 100 µM.
`O=C1N[C@@H](c2cc(F)ccc2Cl)c2c(NC(=O)N3C[C@](O)(C(F)(F)F)c4ccccc43)cc(Cl)cc21` (single isomer, unassigned) [Compound I-2507] gave an IC50 of 1 to 10 µM.
`Cc1ccccc1C1NC(=O)c2cc(NS(C)(=O)=O)cc(NC(=O)c3cc(F)cc(C(F)(F)F)c3)c21` (centres unmarked) [Compound I-56] was tested, and the IC50 was 0.1 to 0.5 µM.
In the case of `O=C1NC(c2cccc(F)c2F)c2c(NC(=O)c3coc4c(F)cc(F)cc34)ccnc21` (centres unmarked) [Compound I-210], the IC50 is reported as 1 to 10 µM.
In the case of `O=C(Nc1cc(Br)cc2c1[C@H](c1ccccc1C(F)F)NC2=O)c1cc(F)cc(C(F)(F)F)c1` [Compound I-789], the IC50 is reported as no more than 0.1 µM.
`N#CCc1cc(NC(=O)N2C[C@@H](O)c3cc(F)ccc32)c2c(c1)C(=O)N[C@@H]2c1cc(F)ccc1Cl` (single isomer, unassigned) [Compound I-2538] was tested, and the IC50 was no more than 0.1 µM.
With `O=C(Nc1cc(-c2ccc3ncnn3c2)cc2c1[C@@H](c1cc(F)ccc1Cl)NC2=O)c1cc(F)cc(C(F)F)c1` (stereo in doubt) [Compound I-1172] the IC50 was 10 to 100 µM.
With `O=C(Nc1cc(-c2ccc3ncnn3c2)cc2c1[C@H](c1cc(Cl)ccc1Cl)NC2=O)c1cc(F)cc(C(F)(F)F)c1` [Compound I-1053] the IC50 was 0.5 to 1 µM.
In the case of `N#CCc1cc(NC(=O)N2C[C@@](O)(C(F)(F)F)c3cc(F)ccc32)c2c(c1)C(=O)N[C@@H]2c1cc(F)ccc1Cl` (single isomer, unassigned) [Compound I-2626], the IC50 is reported as 0.5 to 1 µM.
In the case of `O=C1N[C@@H](c2cc(F)ccc2Cl)c2c(NC(=O)N3C[C@H](CO)[C@@H](C(F)(F)F)C3)cccc21` (single isomer, unassigned) [Compound I-2279], the IC50 is reported as 10 to 100 µM.
`CN(C)/C=N/c1cc(Br)cc2c1C(c1cc(F)ccc1Br)NC2=O` (centres unmarked) [Compound I-326] showed an IC50 of 10 to 100 µM.
In the case of `CCCCc1ccc(Cl)c(C2NC(=O)c3cccc(NC(=O)c4cc(O)cc(C(F)(F)F)c4)c32)c1` (centres unmarked) [Compound I-2391], the IC50 is reported as 1 to 10 µM.
With `O=C(Nc1cc(Br)cc2c1C(c1cc(F)ccc1Cl)NC2=O)c1cc(F)cc(C2CCC2)c1` (centres unmarked) [Compound I-1351] the IC50 was 1 to 10 µM.
With `CC1(C2NC(=O)c3cccc(NC(=O)c4cc(F)cc(C(F)(F)F)c4)c32)CCCCC1` (centres unmarked) [Compound I-1917] the IC50 was 10 to 100 µM.
In the case of `O=C(Nc1cc(Br)cc2c1C(c1cc(F)ccc1Cl)NC2=O)c1cccc(OC(F)(F)F)c1` (centres unmarked) [Compound I-514], the IC50 is reported as 0.5 to 1 µM.
`O=C(Nc1cc(Br)cc2c1C(c1cc(F)ccc1Cl)NC2=O)c1ccnc(C(F)(F)F)c1F` (centres unmarked) [Compound I-607] was tested, and the IC50 was 10 to 100 µM.
For `O=C1NC(c2cc(F)ccc2Cl)c2c(NC(=O)[C@@H]3CC[C@H](O)C3)cc(Br)cc21` (single isomer, unassigned) [Compound I-1975], the IC50 was 10 to 100 µM.
With `O=C1NC(c2ccccc2C(F)(F)F)c2c(NC(=O)c3nsc4ccccc34)cccc21` (centres unmarked) [Compound I-221] the IC50 was 10 to 100 µM.
Work on `O=C(Nc1cccc2c1C(c1cc(O)ccc1Cl)NC2=O)c1cc(F)cc(C(F)(F)F)c1` (centres unmarked) [Compound I-428] yielded an IC50 of 1 to 10 µM.
Compound `CC(C)N1C[C@H](O)C[C@H]1C(=O)Nc1cccc2c1C(c1cc(F)ccc1Cl)NC2=O` (mixture of isomers) [Compound I-2392] has an IC50 of 10 to 100 µM.
Work on `O=C1NC(c2cc(F)ccc2Cl)c2c(NC(=O)C3CCCC(F)(F)C3)cc(-c3ccc4ncnn4c3)cc21` (centres unmarked) [Compound I-1750] yielded an IC50 of 1 to 10 µM.
In the case of `Cc1ccccc1C1NC(=O)c2c(Cl)ncc(NC(=O)c3cc(F)cc(C(F)(F)F)c3)c21` (centres unmarked) [Compound I-232, N-[4-Chloro-1-(2-methylphenyl)-3-oxo-1H,2H,3H-pyrrolo[3,4-c]pyridin-7-yl]-3-fluoro-5-(trifluoromethyl)benzamide], the IC50 is reported as 0.1 to 0.5 µM.
`O=C(Nc1cc(NCC(F)(F)F)nc2c1C(c1cc(F)ccc1Cl)NC2=O)c1cc(F)cc(C(F)(F)F)c1` (centres unmarked) [Compound I-321] showed an IC50 of no more than 0.1 µM.
